According to patent US20220049283A1, “Method of detecting SARS-CoV-2 cleavage targeted proprotein convertase and facilitated protease activity” (priority 2020, published 2022):

Test system: SARS-CoV-2 specific substrate (S1/S2 boundary peptide)
Format: biochemical
Settings: substrate 10 ng/well, 25 min incubation, OD 450 nm, FIG. 4

trypsin
lowest amount of enzyme from which cleavage activity can be detected: 10 ng
